The record followed here is PubChem BioAssay AID272 (DTP/NCI, 2004).

Where “and” joins values, the source holds several entries; their conditions need not be identical. Identical values can stand only once. Inconclusive results are not listed.

In this assay the test system is Lewis lung carcinoma i.m., BDF1 mice, T/C %. Briefly: NCI In Vivo Anticancer Drug Screen. Data for tumor model Lewis Lung Carcinoma (intramuscular) in B6D2F1 (BDF1) mice. Summed up: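 Tumour-bearing mice were dosed with compound, and either their survival or their tumour size was measured. Results were expressed relative to vehicle-treated controls as T/C.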

Turning to `O=C(CCCl)N1CCN(C(=O)CCCl)c2ccccc21`, the T/C runs as follows: (endpoint: mean tumor weight (est.), dose: 150.0 mg/kg/injection, schedule: Q01DX011 (ip), vehicle: saline with Tween-80, higher = larger tumour) 83 % of control; (endpoint: mean tumor weight (est.), dose: 300.0 mg/kg/injection, schedule: Q01DX011 (ip), vehicle: saline with Tween-80, higher = larger tumour) 82 % of control; (endpoint: median survival time, dose: 150.0 mg/kg/injection, schedule: Q01DX011 (ip), vehicle: saline with Tween-80, higher = longer survival) 108 % of control; (endpoint: median survival time, dose: 300.0 mg/kg/injection, schedule: Q01DX011 (ip), vehicle: saline with Tween-80, higher = longer survival) 93 % of control.

`O=C[C@@H](CO)O[C@H](C=O)n1cnc2c(=O)[nH]cnc21`: the T/C is, setting by setting: (endpoint: mean tumor weight, dose: 37.5 mg/kg/injection, schedule: Q01DX011 (ip), vehicle: saline, higher = larger tumour) 53 % of control; (endpoint: mean tumor weight, dose: 39.0 mg/kg/injection, schedule: Q01DX011 (ip), vehicle: saline, higher = larger tumour) 49 % of control; (endpoint: mean tumor weight, dose: 65.0 mg/kg/injection, schedule: Q01DX011 (ip), vehicle: saline, higher = larger tumour) 74 % of control; (endpoint: mean tumor weight, dose: 75.0 mg/kg/injection, schedule: Q01DX011 (ip), vehicle: saline, higher = larger tumour) 71 % of control; (endpoint: mean tumor weight, dose: 108.0 mg/kg/injection, schedule: Q01DX011 (ip), vehicle: saline, higher = larger tumour) 60 % of control; (endpoint: mean tumor weight, dose: 150.0 mg/kg/injection, schedule: Q01DX011 (ip), vehicle: saline, higher = larger tumour) 46 % of control. The T/C is, setting by setting: (endpoint: median survival time, dose: 39.0 mg/kg/injection, schedule: Q01DX011 (ip), vehicle: saline, higher = longer survival) 115 % of control; (endpoint: median survival time, dose: 65.0 mg/kg/injection, schedule: Q01DX011 (ip), vehicle: saline, higher = longer survival) 115 % of control; (endpoint: median survival time, dose: 75.0 mg/kg/injection, schedule: Q01DX011 (ip), vehicle: saline, higher = longer survival) 113 % of control; (endpoint: median survival time, dose: 108.0 mg/kg/injection, schedule: Q01DX011 (ip), vehicle: saline, higher = longer survival) 103 % of control.

In the case of `O=c1c(O)c(-c2ccc(O)c(O)c2)oc2cc(O)cc(O)c12`, the T/C (endpoint: median survival time, dose: 200.0 mg/kg/injection, schedule: Q02DX009 (ip), vehicle: saline, higher = longer survival) is 102 % of control.

As for `CC(=O)c1c(O)c(C)c(O)c2c1OC1=CC(=O)C(C(C)=O)C(=O)C12C` (stereo unspecified), the T/C by setting is: (endpoint: mean tumor weight, dose: 53.0 mg/kg/injection, schedule: Q01DX011 (ip), vehicle: other, higher = larger tumour) 110 % of control; (endpoint: mean tumor weight, dose: 79.0 mg/kg/injection, schedule: Q01DX011 (ip), vehicle: other, higher = larger tumour) 92 % of control; (endpoint: mean tumor weight, dose: 118.0 mg/kg/injection, schedule: Q01DX011 (ip), vehicle: other, higher = larger tumour) 105 % of control; (endpoint: mean tumor weight, dose: 177.0 mg/kg/injection, schedule: Q01DX011 (ip), vehicle: other, higher = larger tumour) 77 % of control; (endpoint: median survival time, dose: 53.0 mg/kg/injection, schedule: Q01DX011 (ip), vehicle: other, higher = longer survival) 98 % of control; (endpoint: median survival time, dose: 79.0 mg/kg/injection, schedule: Q01DX011 (ip), vehicle: other, higher = longer survival) 103 % of control. The T/C (endpoint: median survival time, dose: 177.0 mg/kg/injection, schedule: Q01DX011 (ip), vehicle: other, higher = longer survival) is 96 % of control.

`CN(C)c1nc(N(C)C)nc(N(C)C)n1`: the T/C is 68 % of control (endpoint: mean tumor weight (est.), dose: 25.0 mg/kg/injection, schedule: Q01DX011 (ip), vehicle: saline with Tween-80, higher = larger tumour); 97 % of control (endpoint: mean tumor weight (est.), dose: 50.0 mg/kg/injection, schedule: Q01DX011 (ip), vehicle: saline with Tween-80, higher = larger tumour); 37 % of control (endpoint: mean tumor weight (est.), dose: 100.0 mg/kg/injection, schedule: Q01DX011 (ip), vehicle: saline with Tween-80, higher = larger tumour); 68 % of control (endpoint: mean tumor weight, dose: 62.5 mg/kg/injection, schedule: Q01DX011 (ip), vehicle: steriod suspending solution, higher = larger tumour); 63 % of control (endpoint: mean tumor weight, dose: 125.0 mg/kg/injection, schedule: Q01DX011 (ip), vehicle: steriod suspending solution, higher = larger tumour); 100 % of control (endpoint: median survival time, dose: 62.5 mg/kg/injection, schedule: Q01DX011 (ip), vehicle: steriod suspending solution, higher = longer survival). For the same compound, the T/C (endpoint: median survival time, dose: 125.0 mg/kg/injection, schedule: Q01DX011 (ip), vehicle: steriod suspending solution, higher = longer survival) is 104 % of control.

In the case of `CN1Cc2c(ccc3c2OCO3)[C@@H]2[C@H](O)Cc3cc4c(cc3[C@@H]21)OCO4`, the T/C is 75 % of control (endpoint: mean tumor weight, dose: 62.5 mg/kg/injection, schedule: Q01DX011 (ip), vehicle: saline, higher = larger tumour); 47 % of control (endpoint: mean tumor weight, dose: 125.0 mg/kg/injection, schedule: Q01DX011 (ip), vehicle: saline, higher = larger tumour); 32 % of control (endpoint: mean tumor weight, dose: 500.0 mg/kg/injection, schedule: Q01DX011 (ip), vehicle: saline, higher = larger tumour); 91 % of control (endpoint: median survival time, dose: 62.5 mg/kg/injection, schedule: Q01DX011 (ip), vehicle: saline, higher = longer survival); 95 % of control (endpoint: median survival time, dose: 125.0 mg/kg/injection, schedule: Q01DX011 (ip), vehicle: saline, higher = longer survival); 93 % of control (endpoint: median survival time, dose: 500.0 mg/kg/injection, schedule: Q01DX011 (ip), vehicle: saline, higher = longer survival).

`CC(=O)OC(C1CO1)C(OC(C)=O)C1CO1` (stereo unspecified): the T/C (endpoint: median survival time, dose: 5.0 mg/kg/injection, schedule: Q01DX011 (ip), vehicle: saline, higher = longer survival) is 105 % of control and the T/C (endpoint: median survival time, dose: 10.0 mg/kg/injection, schedule: Q01DX011 (ip), vehicle: saline, higher = longer survival) was 121 % of control.

In the case of `CN(C)/N=N/c1nc[nH]c1C(N)=O`, the T/C (endpoint: mean tumor weight, dose: 50.0 mg/kg/injection, schedule: Q01DX011 (ip), vehicle: steriod suspending solution, higher = larger tumour) is 63 % of control; the T/C (endpoint: mean tumor weight, dose: 100.0 mg/kg/injection, schedule: Q01DX011 (ip), vehicle: steriod suspending solution, higher = larger tumour) was 62 % of control; the T/C (endpoint: mean tumor weight, dose: 200.0 mg/kg/injection, schedule: Q01DX011 (ip), vehicle: steriod suspending solution, higher = larger tumour) is 44 % of control; the T/C (endpoint: median survival time, dose: 23.0 mg/kg/injection, schedule: Q01DX011 (ip), vehicle: Klucel (hydroxypropylcellulose) (HPC), higher = longer survival) was 112 % of control and 115 % of control; the T/C (endpoint: median survival time, dose: 25.0 mg/kg/injection, schedule: Q01DX009 (ip), vehicle: Klucel (hydroxypropylcellulose) (HPC), higher = longer survival) is 101 % of control; the T/C (endpoint: median survival time, dose: 39.0 mg/kg/injection, schedule: Q01DX010 (ip), vehicle: Klucel (hydroxypropylcellulose) (HPC), higher = longer survival) is 102 % of control and 104 % of control. In addition, the T/C by setting is: (endpoint: median survival time, dose: 39.0 mg/kg/injection, schedule: Q01DX011 (ip), vehicle: Klucel (hydroxypropylcellulose) (HPC), higher = longer survival) 108 % of control and 116 % of control; (endpoint: median survival time, dose: 50.0 mg/kg/injection, schedule: Q01DX009 (ip), vehicle: Klucel (hydroxypropylcellulose) (HPC), higher = longer survival) 120 % of control; (endpoint: median survival time, dose: 50.0 mg/kg/injection, schedule: Q01DX011 (ip), vehicle: steriod suspending solution, higher = longer survival) 105 % of control; (endpoint: median survival time, dose: 65.0 mg/kg/injection, schedule: Q01DX010 (ip), vehicle: Klucel (hydroxypropylcellulose) (HPC), higher = longer survival) 112 % of control and 117 % of control; (endpoint: median survival time, dose: 65.0 mg/kg/injection, schedule: Q01DX011 (ip), vehicle: Klucel (hydroxypropylcellulose) (HPC), higher = longer survival) 88 % of control and 93 % of control; (endpoint: median survival time, dose: 100.0 mg/kg/injection, schedule: Q01DX009 (ip), vehicle: Klucel (hydroxypropylcellulose) (HPC), higher = longer survival) 123 % of control. In addition, the T/C (endpoint: median survival time, dose: 100.0 mg/kg/injection, schedule: Q01DX011 (ip), vehicle: steriod suspending solution, higher = longer survival) was 97 % of control; the T/C (endpoint: median survival time, dose: 108.0 mg/kg/injection, schedule: Q01DX010 (ip), vehicle: Klucel (hydroxypropylcellulose) (HPC), higher = longer survival) was 88 % of control and 93 % of control; the T/C (endpoint: median survival time, dose: 108.0 mg/kg/injection, schedule: Q01DX011 (ip), vehicle: Klucel (hydroxypropylcellulose) (HPC), higher = longer survival) is 75 % of control; the T/C (endpoint: median survival time, dose: 180.0 mg/kg/injection, schedule: Q01DX010 (ip), vehicle: Klucel (hydroxypropylcellulose) (HPC), higher = longer survival) was 79 % of control; the T/C (endpoint: median survival time, dose: 180.0 mg/kg/injection, schedule: Q01DX011 (ip), vehicle: Klucel (hydroxypropylcellulose) (HPC), higher = longer survival) is 63 % of control; the T/C (endpoint: median survival time, dose: 200.0 mg/kg/injection, schedule: Q01DX011 (ip), vehicle: steriod suspending solution, higher = longer survival) is 97 % of control. Also, the T/C is 58 % of control (endpoint: median survival time, dose: 300.0 mg/kg/injection, schedule: Q01DX010 (ip), vehicle: Klucel (hydroxypropylcellulose) (HPC), higher = longer survival); 55 % of control (endpoint: median survival time, dose: 300.0 mg/kg/injection, schedule: Q01DX011 (ip), vehicle: Klucel (hydroxypropylcellulose) (HPC), higher = longer survival); 57 % of control (endpoint: median survival time, dose: 500.0 mg/kg/injection, schedule: Q01DX010 (ip), vehicle: Klucel (hydroxypropylcellulose) (HPC), higher = longer survival); 51 % of control (endpoint: median survival time, dose: 500.0 mg/kg/injection, schedule: Q01DX011 (ip), vehicle: Klucel (hydroxypropylcellulose) (HPC), higher = longer survival).

On to `S=P(N1CC1)(N1CC1)N1CC1`, for which the T/C is 92 % of control (endpoint: median survival time, dose: 1.5 mg/kg/injection, schedule: Q01DX011 (ip), vehicle: water, higher = longer survival); 110 % of control and 119 % of control (endpoint: median survival time, dose: 3.0 mg/kg/injection, schedule: Q01DX011 (ip), vehicle: water, higher = longer survival); 86 % of control (endpoint: median survival time, dose: 6.0 mg/kg/injection, schedule: Q01DX011 (ip), vehicle: water, higher = longer survival).

Take `CN1C=c2c3c(ccc2=C2C=CC4C=C5OCOC5=CC4=C21)OCO3` (stereo unspecified): the T/C is 78 % of control (endpoint: mean tumor weight (est.), dose: 7.5 mg/kg/injection, schedule: Q01DX011 (ip), vehicle: saline with Tween-80, higher = larger tumour); 51 % of control (endpoint: mean tumor weight (est.), dose: 15.0 mg/kg/injection, schedule: Q01DX011 (ip), vehicle: saline with Tween-80, higher = larger tumour); 122 % of control (endpoint: median survival time, dose: 7.5 mg/kg/injection, schedule: Q01DX011 (ip), vehicle: saline with Tween-80, higher = longer survival); 100 % of control (endpoint: median survival time, dose: 15.0 mg/kg/injection, schedule: Q01DX011 (ip), vehicle: saline with Tween-80, higher = longer survival).
